Data as given in patent publication US9040516B2, “Uracil derivative and use thereof for medical purposes” (SUMITOMO DAINIPPON PHARMA CO., LTD., priority 2011, dated 2015).

target: T1, human neutrophil elastase (Homo sapiens, UniProt P08246); assay: Inhibitory action against human neutrophil elastase (Test Example 1; fluorogenic substrate MeOSuc-AAPV-AMC, buffer with 2M NaCl, 0.002% Brij-35); format: biochemical; conditions: 37° C., read-out: IC50 value (compound concentration required for 50% inhibition of human neutrophil elastase)
T1 construct: purchased Elastin Products Company
T1 sequence (P08246 30-267): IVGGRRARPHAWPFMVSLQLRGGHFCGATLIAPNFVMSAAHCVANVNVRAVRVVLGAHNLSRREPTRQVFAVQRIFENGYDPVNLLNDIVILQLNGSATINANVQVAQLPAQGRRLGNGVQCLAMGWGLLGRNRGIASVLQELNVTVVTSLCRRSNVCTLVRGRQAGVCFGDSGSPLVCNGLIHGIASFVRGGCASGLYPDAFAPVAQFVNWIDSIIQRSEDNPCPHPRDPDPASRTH
Method: Assay buffer (0.4 unit/ml HNE (human neutrophil elastase, available from Elastin Products Company), 200 mM HEPES [N-(2-hydroxyethyl)piperazine-N′-(2-ethanesulfonic acid)], pH 7.5, 2M NaCl, 0.002% Brij-35) 100 μl, water for injection 40 μl and DMSO (dimethyl sulfoxide) solution of the present compound 20 μl were mixed in a 96 well plate and the mixed solutions were pre-incubated at 37° C. for five minutes. After pre-incubation, MeOSuc-AAPV-AMC (methoxysuccinyl-alanyl-alanyl-prolyl-valyl-aminomethyl cumaride (available from Sigma Aldrich Co.) solution as fluorogenic substrate (which was dissolved in 10% DMSO solution so as to adjust to 0.5 mM) 40 μl was added to the above-prepared mixed solution so as to initiate the reaction, and the mixture was incubated at 37° C. for five minutes. The fluorescence intensity of AMC was measured at an excitation wavelength of 380 nm and a fluorescence wavelength of 460 nm and the inhibition ratio was determined.

SMILES | IC50 [nM]
Cc1c(-c2ccnn2-c2ccc(C#N)cc2)c(=O)n(C)c(=O)n1-c1ccc(F)c(C(F)(F)F)c1 [Example 13, 4-[5-[1-(4-fluoro-3-trifluorophenyl)-3,6-dimethyl-2,4-dioxo-1,2,3,4-tetrahydropyrimidin-5-yl]-1H-pyrazol-1-yl]benzonitrile] | 86
Cc1c(-c2ccnn2-c2ccc(C#N)cc2)c(=O)n(C)c(=O)n1-c1ccccc1 [Example 14, 4-[5-(1-phenyl-3,6-dimethyl-2,4-dioxo-1,2,3,4-tetrahydropyrimidin-5-yl)-1H-pyrazol-1-yl]benzonitrile] | 12600
Cc1c(-c2ccnn2-c2ccc(C#N)cc2)c(=O)n(C)c(=O)n1-c1cccc([N+](=O)[O-])c1 [Example 18, 4-[5-[1-(3-nitrophenyl)-3,6-dimethyl-2,4-dioxo-1,2,3,4-tetrahydropyrimidin-5-yl]-1H-pyrazol-1-yl]benzonitrile] | 47
Cc1c(-c2ccnn2-c2ccc(F)cc2)c(=O)n(C)c(=O)n1-c1cccc(C(F)(F)F)c1 [Example 22, 5-[1-(4-fluorophenyl)-1H-pyrazol-5-yl]-3,6-dimethyl-1-(3-trifluoromethylphenyl)pyrimidin-2,4(1H,3H)-dione] | 793
Cc1c(-c2ccnn2-c2ccc(C#N)nc2)c(=O)n(C)c(=O)n1-c1cccc(C(F)(F)F)c1 [Example 23, 5-[5-[3,6-dimethyl-2,4-dioxo-1-(3-trifluoromethylphenyl)-1,2,3,4-tetrahydropyrimidin-5-yl]-1H-pyrazol-1-yl]picolinonitrile] | 651
CN(C)C=Nc1c(-c2ccnn2-c2ccc(C#N)cc2)c(=O)n(C)c(=O)n1-c1cccc(C(F)(F)F)c1 [Example 28, N′-[5-[1-(4-cyanophenyl)-1H-pyrazol-5-yl]-1-methyl-2,6-dioxo-3-(3-trifluoromethylphenyl)-1,2,3,6-tetrahydropyrimidin-4-yl]-N,N-dimethylformimidamide] | 2240
CCCn1c(=O)c(-c2ccnn2-c2ccc(C#N)cc2)c(N=CN(C)C)n(-c2cccc([N+](=O)[O-])c2)c1=O [Example 29, N′-[5-[1-(4-cyanophenyl)-1H-pyrazol-5-yl]-3-(3-nitrophenyl)-2,6-dioxo-1-propyl-1,2,3,6-tetrahydropyrimidin-4-yl]-N,N-dimethylformimidamide] | 2140
Cc1c(-c2ccnn2-c2ccc(C#N)cc2)c(=O)n(CCCCCNC(=O)OC(C)(C)C)c(=O)n1-c1cccc(C(F)(F)F)c1 [Example 30, Tert-butyl 5-[5-[1-(4-cyanophenyl)-1H-pyrazol-5-yl]-4-methyl-2,6-dioxo-3-(3-trifluoromethyl)-2,3-dihydropyrimidine-1 (6H)-yl]pentylcarbamate] | 64
Cc1c(-c2ccnn2-c2ccc(C#N)cc2)c(=O)n(C)c(=O)n1-c1cccc(C(F)(F)F)c1 [Example 31, 4-[5-[3,6-dimethyl-2,4-dioxo-1-(3-trifluoromethylphenyl)-1,2,3,4-tetrahydropyrimidin-5-yl]-1H-pyrazol-1-yl]benzonitrile] | 19
Cc1c(-c2ccnn2-c2ccc(C#N)cc2)c(=O)n(C)c(=O)n1-c1cccc(C(F)(F)F)n1 [Example 33, 4-[5-[3,6-dimethyl-2,4-dioxo-1-(6-trifluoromethylpyridine-2-yl)-1,2,3,4-tetrahydropyrimidin-5-yl]-1H-pyrazol-1-yl]benzonitrile] | 74600
Cc1c(-c2ccnn2-c2ccc(C#N)cc2)c(=O)n(C)c(=O)n1-c1cccc(Br)c1 [Example 34, 4-[5-[1-(3-bromophenyl)-3,6-dimethyl-2,4-dioxo-1,2,3,4-tetrahydropyrimidin-5-yl]-1H-pyrazol-1-yl]benzonitrile] | 232
CSc1cc(C#N)ccc1-n1nccc1-c1c(C)n(-c2cccc(C(F)(F)F)c2)c(=O)n(C)c1=O [Example 36, 4-[5-[3,6-dimethyl-2,4-dioxo-1-(3-trifluoromethylphenyl)-1,2,3,4-tetrahydropyrimidin-5-yl]-1H-pyrazol-1-yl]-3-(methylthio)benzonitrile] | 111
Cc1c(-c2ccnn2-c2ccc(C#N)cc2)c(=O)n(C)c(=O)n1-c1cccc(C(C)(C)C)c1 [Example 38, 4-(5-(1-(3-tert-butylphenyl)-3,6-dimethyl-2,4-dioxo-1,2,3,4-tetrahydropyrimidin-5-yl)-1H-pyrazol-1-yl)benzonitrile] | 7910
Cc1c(-c2ccnn2-c2ccc(C#N)cc2)c(=O)n(C)c(=O)n1-c1cccc(S(C)(=O)=O)c1 [Example 39, 4-(5-(3,6-dimethyl-1-(3-(methylsulfonyl)phenyl)-2,4-dioxo-1,2,3,4-tetrahydropyrimidin-5-yl)-1H-pyrazol-1-yl)benzonitrile] | 19900
COc1ccc(-n2nccc2-c2c(C)n(-c3cccc(C(F)(F)F)c3)c(=O)n(C)c2=O)cc1 [Example 40, 5-(1-(4-methoxyphenyl)-1H-pyrazol-5-yl)-3,6-dimethyl-1-(3-(trifluoromethyl)phenyl)pyrimidin-2,4(1H,3H)-dione] | 8340
CCCn1c(=O)c(-c2ccnn2-c2ccc(C#N)cc2)c(N)n(-c2cccc([N+](=O)[O-])c2)c1=O [Example 57, 4-[5-[6-Amino-1-(3-nitrophenyl)-2,4-dioxo-3-propyl-1,2,3,4-tetrahydropyrimidin-5-yl]-1H-pyrazol-1-yl]benzonitrile] | 159
Cn1c(=O)c(-c2ccnn2-c2ccc(C#N)cc2)c(N)n(-c2cccc(C(F)(F)F)c2)c1=O [Example 58, 4-[5-[6-Amino-3-methyl-2,4-dioxo-1-(3-trifluoromethylphenyl)-1,2,3,4-tetrahydropyrimidin-5-yl]-1H-pyrazol-1-yl]benzonitrile] | 552
Cc1c(-c2cccnc2-c2ccc(C#N)cc2)c(=O)n(C)c(=O)n1-c1cccc(C(F)(F)F)c1 [Example 61, 4-[3-[3,6-dimethyl-2,4-dioxo-1-(3-trifluoromethylphenyl)-1,2,3,4-tetrahydropyrimidin-5-yl]-pyridin-2-yl]benzonitrile] | 74
CCCn1c(=O)c(-n2cnnc2-c2ccc(C#N)cc2)c(C)n(-c2cccc(C(F)(F)F)c2)c1=O [Example 62, 4-[4-[6-Methyl-2,4-dioxo-3-propyl-1-(3-trifluoromethylphenyl)-1,2,3,4-tetrahydropyrimidin-5-yl]-4H-1,2,4-triazol-3-yl]benzonitrile] | 68
Cc1c(-c2ccnn2-c2ccc(C#N)cc2)c(=O)n(CC=O)c(=O)n1-c1cccc(C(F)(F)F)c1 [Example 68] | 111
Cc1c(-c2ccnn2-c2ccc(C#N)cc2)c(=O)n(CCN(C)C)c(=O)n1-c1cccc(C(F)(F)F)c1 [Example 69, 4-[5-[3-(2-Dimethylaminoethyl)-6-methyl-2,4-dioxo-1-(3-trifluoromethylphenyl)-1,2,3,4-tetrahydropyrimidin-5-yl]-1H-pyrazol-1-yl]benzonitrile] | 114
CNCCn1c(=O)c(-c2ccnn2-c2ccc(C#N)cc2)c(C)n(-c2cccc(C(F)(F)F)c2)c1=O [Example 70, 4-[5-[6-Methyl-3-(2-methylaminoethyl)-2,4-dioxo-1-(3-trifluoromethylphenyl)-1,2,3,4-tetrahydropyrimidin-5-yl]-1H-pyrazol-1-yl]benzonitrile] | 43
CC(=O)NCCn1c(=O)c(-c2ccnn2-c2ccc(C#N)cc2)c(C)n(-c2cccc(C(F)(F)F)c2)c1=O [Example 71, N-[2-[5-[1-(4-Cyanophenyl)-1H-pyrazol-5-yl]-4-methyl-2,6-dioxo-3-(3-trifluoromethylphenyl)-2,3-dihydropyrimidin-1(6H)-yl]ethyl]acetamide] | 169

same assay, conditions: at 100 μM

SMILES | Inhibition ratio (%)
Cc1c(-c2ccnn2-c2ccc(C#N)cc2)c(=O)n(C)c(=O)n1-c1ccccc1C(F)(F)F [Example 15, 4-[5-[3,6-dimethyl-2,4-dioxo-1-(2-trifluoromethylphenyl)-1,2,3,4-tetrahydropyrimidin-5-yl]-1H-pyrazol-1-yl]benzonitrile] | 76
Cc1c(-c2ccnn2-c2ccc(C#N)cc2)c(=O)n(C)c(=O)n1-c1ccc(C(F)(F)F)cc1 [Example 16, 4-[5-[3,6-dimethyl-2,4-dioxo-1-(4-trifluoromethylphenyl)-1,2,3,4-tetrahydropyrimidin-5-yl]-1H-pyrazol-1-yl]benzonitrile] | 90
Cc1c(-c2ccnn2-c2ccccc2)c(=O)n(C)c(=O)n1-c1cccc(C(F)(F)F)c1 [Example 20, 3,6-dimethyl-5-(1-phenyl-1H-pyrazol-5-yl)-1-(3-trifluoromethylphenyl)pyrimidin-2,4(1H,3H)-dione] | 83
COC(=O)c1cccc(-n2c(C)c(-c3ccnn3-c3ccc(C#N)cc3)c(=O)n(C)c2=O)c1 [Example 32, 3-[5-[1-(4-cyanophenyl)-1H-pyrazol-5-yl]-3,6-dimethyl-2,4-dioxo-3,4-dihydropyrimidin-1(2H)-yl]benzoic acid methyl ester] | 50
Cc1c(-c2ccnn2-c2cccc(C#N)c2)c(=O)n(C)c(=O)n1-c1cccc(C(F)(F)F)c1 [Example 35, 3-[5-[3,6-dimethyl-2,4-dioxo-1-(3-trifluoromethylphenyl)-1,2,3,4-tetrahydropyrimidin-5-yl]-1H-pyrazol-1-yl]benzonitrile] | 49
